Reference: patent US9302991B2, “Arylamide derivatives as TTX-S blockers” (RaQualia Pharma Inc., priority 2010, dated 2016)

Each compound was assayed against T1, human Nav1.7 channels (Homo sapiens, UniProt Q15858) (assay: FRET assay, human Nav1.7 (EFS on FDSS)). Conditions: CHO cells expressing human Nav1.7, read-out: IC50 against Nav1.7.
T1 construct: expressed in transfected cells; host or cells: CHO
Format: cell-based
Outline: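 IC50 was derived from normalized 440 nm fluorescence ratios of the EFS-evoked membrane-potential response read on FDSS. Recombinant CHO cells were sequentially dye-loaded with coumarin/oxonol FRET pair at room temperature in pH 7.4 buffer before compound addition.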

T1 sequence (Q15858 whole entry): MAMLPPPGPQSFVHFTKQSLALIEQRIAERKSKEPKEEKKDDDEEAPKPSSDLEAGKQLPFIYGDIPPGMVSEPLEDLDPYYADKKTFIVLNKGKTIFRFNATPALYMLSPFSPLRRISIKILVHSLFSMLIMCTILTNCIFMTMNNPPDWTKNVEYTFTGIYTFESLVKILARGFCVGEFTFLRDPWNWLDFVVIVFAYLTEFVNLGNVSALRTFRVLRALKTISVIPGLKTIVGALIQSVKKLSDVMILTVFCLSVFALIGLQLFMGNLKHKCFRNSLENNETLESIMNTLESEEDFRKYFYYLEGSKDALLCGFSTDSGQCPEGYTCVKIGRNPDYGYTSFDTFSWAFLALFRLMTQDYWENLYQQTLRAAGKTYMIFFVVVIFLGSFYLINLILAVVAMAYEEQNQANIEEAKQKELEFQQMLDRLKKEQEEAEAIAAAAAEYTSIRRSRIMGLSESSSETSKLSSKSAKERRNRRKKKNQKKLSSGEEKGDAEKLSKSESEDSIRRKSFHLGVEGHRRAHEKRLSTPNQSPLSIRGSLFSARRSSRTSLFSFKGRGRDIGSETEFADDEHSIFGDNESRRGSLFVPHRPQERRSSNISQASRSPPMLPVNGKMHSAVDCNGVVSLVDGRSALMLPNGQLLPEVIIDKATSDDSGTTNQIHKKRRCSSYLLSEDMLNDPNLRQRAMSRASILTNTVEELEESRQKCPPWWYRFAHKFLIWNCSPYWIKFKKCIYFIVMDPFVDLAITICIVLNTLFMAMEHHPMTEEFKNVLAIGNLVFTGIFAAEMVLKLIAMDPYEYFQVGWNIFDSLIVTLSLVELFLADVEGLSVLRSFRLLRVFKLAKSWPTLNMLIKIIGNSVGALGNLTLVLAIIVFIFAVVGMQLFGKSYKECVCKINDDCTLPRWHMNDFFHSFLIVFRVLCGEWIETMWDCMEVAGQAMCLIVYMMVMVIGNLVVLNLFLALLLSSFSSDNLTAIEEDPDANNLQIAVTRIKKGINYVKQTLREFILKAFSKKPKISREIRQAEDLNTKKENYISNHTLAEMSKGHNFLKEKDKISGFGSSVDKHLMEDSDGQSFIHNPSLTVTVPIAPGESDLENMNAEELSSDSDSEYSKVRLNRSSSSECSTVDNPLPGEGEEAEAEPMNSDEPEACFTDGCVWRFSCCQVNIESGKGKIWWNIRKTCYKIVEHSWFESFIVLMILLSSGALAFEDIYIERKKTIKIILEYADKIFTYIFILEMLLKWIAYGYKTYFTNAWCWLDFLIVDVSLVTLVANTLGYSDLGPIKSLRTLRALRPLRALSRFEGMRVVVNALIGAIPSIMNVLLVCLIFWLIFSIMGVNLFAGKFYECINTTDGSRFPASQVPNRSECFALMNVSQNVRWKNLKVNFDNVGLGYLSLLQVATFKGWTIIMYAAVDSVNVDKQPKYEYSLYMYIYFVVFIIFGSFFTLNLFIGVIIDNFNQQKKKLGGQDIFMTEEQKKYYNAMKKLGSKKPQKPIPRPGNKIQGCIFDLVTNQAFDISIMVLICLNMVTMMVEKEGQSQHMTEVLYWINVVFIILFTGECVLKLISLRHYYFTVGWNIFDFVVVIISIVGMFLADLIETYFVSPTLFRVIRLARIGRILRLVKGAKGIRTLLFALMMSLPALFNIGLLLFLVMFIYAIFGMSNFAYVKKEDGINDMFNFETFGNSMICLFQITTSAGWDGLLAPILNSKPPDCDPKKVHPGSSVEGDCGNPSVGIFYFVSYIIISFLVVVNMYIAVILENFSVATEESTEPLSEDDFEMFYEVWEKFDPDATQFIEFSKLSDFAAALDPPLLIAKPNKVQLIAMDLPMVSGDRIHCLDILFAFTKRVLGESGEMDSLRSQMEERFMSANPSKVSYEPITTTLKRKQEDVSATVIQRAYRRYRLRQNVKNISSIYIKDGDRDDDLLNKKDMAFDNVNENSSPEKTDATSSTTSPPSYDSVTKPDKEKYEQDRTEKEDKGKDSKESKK

Compound | IC50
CC(=O)Nc1cc(C(=O)NC(C)c2ccc(OCC(C)(F)F)nc2)cc(C)n1 (single isomer, unassigned) [Example 783, 2-acetamido-N-(1-(6-(2,2-difluoropropoxy)pyridin-3-yl)ethyl)-6-methylisonicotinamide] | < 1000 nM
CC(C)C(=O)Nc1cc(C(=O)NC(C)c2ccc(OCC(C)(F)F)nc2)ccn1 (single isomer, unassigned) [Example 785, N-(1-(6-(2,2-difluoropropoxy)pyridin-3-yl)ethyl)-2-isobutyramidoisonicotinamide] | < 1000 nM
CCCC(=O)Nc1cc(C(=O)NC(C)c2ccc(OCC(C)(F)F)nc2)ccn1 (single isomer, unassigned) [Example 787, 2-butyramido-N-(1-(6-(2,2-difluoropropoxy)pyridin-3-yl)ethyl)isonicotinamide] | < 1000 nM
CC(=O)Nc1cc(C(=O)NC(C)c2ccc(OCC(F)(F)F)cc2Cl)ccn1 (single isomer, unassigned) [Example 796, 2-acetamido-N-(1-(2-chloro-4-(2,2,2-trifluoroethoxy)phenyl)ethyl)isonicotinamide] | < 1000 nM
CCC(=O)Nc1cc(C(=O)NC(C)c2ccc(OCC(F)(F)F)cc2Cl)ccn1 (single isomer, unassigned) [Example 797, N-(1-(2-chloro-4-(2,2,2-trifluoroethoxy)phenyl)ethyl)-2-propionamidoisonicotinamide] | < 1000 nM
CC(NC(=O)c1ccnc(NC(=O)C2CC2)c1)c1ccc(OCC(F)(F)F)cc1Cl (single isomer, unassigned) [Example 798, N-(1-(2-chloro-4-(2,2,2-trifluoroethoxy)phenyl)ethyl)-2-(cyclopropanecarboxamido)isonicotinamide] | < 1000 nM
CC(C)C(=O)Nc1cc(C(=O)NC(C)c2ccc(OCC(F)(F)F)cc2Cl)ccn1 (single isomer, unassigned) [Example 799, N-(1-(2-chloro-4-(2,2,2-trifluoroethoxy)phenyl)ethyl)-2-isobutyramidoisonicotinamide] | < 1000 nM
CC(=O)Nc1cc(C(=O)NC(C)c2ccc(OCC(F)(F)F)cc2Cl)cc(C)n1 (single isomer, unassigned) [Example 800, 2-acetamido-N-(1-(2-chloro-4-(2,2,2-trifluoroethoxy)phenyl)ethyl)-6-methylisonicotinamide] | < 1000 nM
Cc1cc(C(=O)NC(C)c2ccc(OCC(F)(F)F)cc2Cl)cc(NC(=O)C(C)C)n1 (single isomer, unassigned) [Example 801, N-(1-(2-chloro-4-(2,2,2-trifluoroethoxy)phenyl)ethyl)-2-isobutyramido-6-methylisonicotinamide] | < 1000 nM
CC(NC(=O)c1ccnc(NC(=O)C2CC2)n1)c1ccc(OCC(F)(F)F)cc1Cl (single isomer, unassigned) [Example 802, N-(1-(2-chloro-4-(2,2,2-trifluoroethoxy)phenyl)ethyl)-2-(cyclopropanecarboxamido)pyrimidine-4-carboxamide] | < 1000 nM
Cc1cc(C(=O)NC(C)c2ccc(OCC(F)(F)F)cc2Cl)nc(NC(=O)C2CC2)n1 (single isomer, unassigned) [Example 803, N-(1-(2-chloro-4-(2,2,2-trifluoroethoxy)phenyl)ethyl)-2-(cyclopropanecarboxamido)-6-methylpyrimidine-4-carboxamide] | < 1000 nM
Cc1cc(C(=O)NC(C)c2ccc(OCC(F)(F)C(F)F)nc2)cc(NC(=O)C2CC2)n1 (single isomer, unassigned) [Example 828] | < 1000 nM
Cc1cc(C(=O)NC(C)c2ccc(OCC(F)(F)C(F)(F)F)nc2)cc(NC(=O)C2CC2)n1 (single isomer, unassigned) [Example 837, 2-(cyclopropanecarboxamido)-6-methyl-N-(1-(6-(2,2,3,3,3-pentafluoropropoxy)pyridin-3-yl)ethyl)isonicotinamide] | < 1000 nM
Cc1cc(C(=O)N[C@H](C)c2cccc(C(F)(F)F)c2)cc(NC(=O)C2CC2)n1 (single isomer, unassigned) [Example 838] | < 1000 nM
Cc1cc(C(=O)NC(C)c2cccc(OC(F)(F)F)c2)cc(NC(=O)C2CC2)n1 (single isomer, unassigned) [Example 839, 2-(cyclopropanecarboxamido)-6-methyl-N-(1-(3-(trifluoromethoxy)phenyl)ethyl)isonicotinamide] | < 1000 nM
Cc1cc(C(C)NC(=O)c2ccnc(NC(=O)C(C)C)c2)ccc1OCC(F)F (single isomer, unassigned) [Example 862, N-(1-(4-(2,2-difluoroethoxy)-3-methylphenyl)ethyl)-2-isobutyramidoisonicotinamide] | < 1000 nM
Cc1cc(C(C)NC(=O)c2ccnc(NC(=O)C3CC3)n2)ccc1OCC(F)F (single isomer, unassigned) [Example 863, 2-(cyclopropanecarboxamido)-N-(1-(4-(2,2-difluoroethoxy)-3-methylphenyl)ethyl)pyrimidine-4-carboxamide] | < 1000 nM

Compound | IC50
Cc1cc(C(=O)NC(C)c2ccc(OCC(F)F)c(C)c2)cc(NC(=O)C(C)C)n1 (single isomer, unassigned) [Example 865, N-(1-(4-(2,2-difluoroethoxy)-3-methyphenyl)ethyl)-2-isobutyramido-6-methylisonicotinamide] | < 1000 nM
Cc1cc(C(=O)NC(C)c2ccc(OCC(F)F)c(C)c2)cc(NC(=O)C2CC2)n1 (single isomer, unassigned) [Example 866, 2-(cyclopropanecarboxamido)-N-(1-(4-(2,2-difluoroethoxy)-3-methylphenyl)ethyl)-6-methylisonicotinamide] | < 1000 nM
Cc1cc(C(=O)NC(C)c2cccc(OCC(F)(F)F)c2)cc(NC(=O)C(C)C)n1 (single isomer, unassigned) [Example 881, 2-isobutyramido-6-methyl-N-(1-(3-(2,2,2-trifluoroethoxy)phenyl)ethyl)isonicotinamide] | < 1000 nM
CCc1cc(C(C)NC(=O)c2ccnc(NC(=O)C3CC3)n2)cnc1OCC(F)F (single isomer, unassigned) [Example 890, 2-(cyclopropanecarboxamido)-N-(1-(6-(2,2-difluoroethoxy)-5-ethylpyridin-3-yl)ethyl)pyrimidine-4-carboxamide] | < 1000 nM
CCc1cc(C(C)NC(=O)c2cc(C)nc(NC(=O)C(C)C)c2)cnc1OCC(F)F (single isomer, unassigned) [Example 893, N-(1-(6-(2,2-difluoroethoxy)-5-ethylpyridin-3-yl)ethyl)-2-isobutyramido-6-methylisonicotinamide] | < 1000 nM
CC(=O)Nc1cc(C(=O)NC(C)c2cnc(OCC(F)(F)C(F)F)c(C)c2)ccn1 (single isomer, unassigned) [Example 903, 2-acetamido-N-(1-(5-methyl-6-(2,2,3,3-tetrafluoropropoxy)pyridin-3-yl)ethyl)isonicotinamide] | < 1000 nM
Cc1cc(C(=O)NC(C)c2cnc(OCC(F)(F)C(F)F)c(C)c2)nc(NC(=O)C2CC2)n1 (single isomer, unassigned) [Example 907, 2-(cyclopropanecarboxamido)-6-methyl-N-(1-(5-methyl-6-(2,2,3,3-tetrafluoropropoxy)pyridin-3-yl)ethyl)pyrimidine-4-carboxamide] | < 1000 nM
CC(NC(=O)c1ccnc(NC(=O)C2CC2)c1)c1ccc(OCC(F)(F)C(F)F)nc1 (single isomer, unassigned) [Example 922, 2-(cyclopropanecarboxamido)-N-(1-(6-(2,2,3,3-tetrafluoropropoxy)pyridin-3-yl)ethyl)isonicotinamide] | < 1000 nM
CC(=O)Nc1cc(C(=O)NC(C)c2ccc(OCC(F)(F)C(F)(F)F)nc2)ccn1 (single isomer, unassigned) [Example 924, 2-acetamido-N-(1-(6-(2,2,3,3,3-pentafluoropropoxy)pyridin-3-yl)ethyl)isonicotinamide] | < 1000 nM
CCCC(=O)Nc1cc(C(=O)NC(C)c2cnc(OCC(F)(F)C(F)F)c(C)c2)ccn1 (single isomer, unassigned) [Example 928, 2-butyramido-N-(1-(5-methyl-6-(2,2,3,3-tetrafluoropropoxy)pyridin-3-yl)ethyl)isonicotinamide] | < 1000 nM
Cc1cc(C(=O)NC(C)c2cnc(OCC(F)F)c(C)c2)cc(NC(=O)C2CC2)n1 (single isomer, unassigned) [Example 938, 2-(cyclopropanecarboxamido)-N-(1-(6-(2,2-difluoroethoxy)-5-methylpyridin-3-yl)ethyl)-6-methylisonicotinamide] | < 1000 nM
Cc1cc(C(=O)NC(C)c2cc(C(F)(F)F)ccc2F)cc(NC(=O)C(C)C)n1 (single isomer, unassigned) [Example 980, N-(1-(2-fluoro-5-(trifluoromethyl)phenyl)ethyl)-2-isobutyramido-6-methylisonicotinamide] | < 1000 nM
CC(=O)Nc1cc(C(=O)NC(C)c2cc(C(F)(F)F)ccc2F)cc(C)n1 (single isomer, unassigned) [Example 981, 2-acetamido-N-(1-(2-fluoro-5-(trifluoromethyl)phenyl)ethyl)-6-methyl-isonicotinamide] | < 1000 nM
CC(=O)Nc1cc(C(=O)NC(C)c2cccc(OCC(F)(F)F)c2)cc(C)n1 (single isomer, unassigned) [Example 1009, 2-acetamido-6-methyl-N-(1-(3-(2,2,2-trifluoroethoxy)phenyl)ethyl)isonicotinamide] | < 1000 nM
CC(C)C(=O)Nc1cc(C(=O)NC(C)c2cccc(SC(F)(F)F)c2)ccn1 (single isomer, unassigned) [Example 1030, 2-isobutyramido-N-(1-(3-((trifluoromethyl)thio)phenyl)ethyl)isonicotinamide] | < 1000 nM
CC(=O)Nc1cc(C(=O)NC(C)c2cccc(SC(F)(F)F)c2)cc(C)n1 (single isomer, unassigned) [Example 1031, 2-acetamido-6-methyl-N-(1-(3-((trifluoromethyl)thio)phenyl)ethyl)isonicotinamide] | < 1000 nM
